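A five-concentration, 48-hour dose response in 96-well plates underlies each endpoint, interpolated linearly between surrounding concentrations. Here, GI50 denotes the concentration required for 50% inhibition of growth. TGI is the concentration that stops growth completely.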

5 compounds from PubChem BioAssay (NCI) can be followed below.

Among the test systems are SF-268 CNS; OVCAR-3 ovarian; U251 CNS; COLO 205 colon; KM12 colon; NCI-H460 lung; NCI-H226 lung; HT29 colon; SK-OV-3 ovarian; A549 NSCLC.
Common to all, as to assay: growth of human tumour cells (NCI), 48 h

Take `O=C(Nc1ccccc1O)c1ccc(CNc2ccnc(C(F)(F)F)c2)cc1`: the GI50 in the assay on SF-268 CNS is 4.55 µM; with OVCAR-3 ovarian it was 4.88 µM; with U251 CNS it was 4.73 µM; with COLO 205 colon it was 14.7 µM; in the assay with KM12 colon, 7.01 µM; with NCI-H460 lung, 3.78 µM. Moreover, the GI50 is 6.56 µM in the assay on NCI-H226 lung, 6.42 µM in the assay on HT29 colon, 5.41 µM in the assay with SK-OV-3 ovarian and 12 µM with A549 NSCLC. For the same compound, the TGI in the assay with SF-268 CNS was 26.3 µM; in the assay with OVCAR-3 ovarian, 21.9 µM; with U251 CNS, over 100 µM; in the assay on COLO 205 colon it was 31.3 µM; in the assay with KM12 colon it was 23.3 µM; with NCI-H460 lung, 83.4 µM. Moreover, the TGI is 33.8 µM in the assay on NCI-H226 lung, over 100 µM in the assay with HT29 colon, 41.7 µM with SK-OV-3 ovarian and over 100 µM with A549 NSCLC.

In the case of `CCn1cc(-c2ccnc3[nH]ccc23)c(-c2cccc(NC(=O)Nc3ccc(OCc4ccccc4)cc3)c2)n1`, the GI50 in the assay with SF-268 CNS was over 19.7 µM; with OVCAR-3 ovarian, 6.24 µM; in the assay with U251 CNS it was 4.75 µM; with COLO 205 colon it was 11.2 µM; in the assay with KM12 colon, 7.44 µM; with NCI-H460 lung it was 7.45 µM. Also, the GI50 in the assay on NCI-H226 lung was over 25 µM; in the assay on HT29 colon it was 4.18 µM; with SK-OV-3 ovarian, over 22.4 µM; with A549 NSCLC, 2.85 µM. For the same compound, the TGI was over 25 µM in the assay with SF-268 CNS; 19.6 µM in the assay with OVCAR-3 ovarian; over 25 µM with U251 CNS; over 25 µM with COLO 205 colon; over 25 µM in the assay on KM12 colon; over 25 µM in the assay with NCI-H460 lung. The TGI is over 25 µM in the assay with NCI-H226 lung, over 20.3 µM in the assay on HT29 colon, over 25 µM with SK-OV-3 ovarian and over 25 µM with A549 NSCLC.

Consider `CN(C)c1ncc(-c2ccc(C(F)(F)F)cc2)c(NC2CCCCCC2)n1`, for which the GI50 was 22.7 µM in the assay on SF-268 CNS; 16.3 µM with OVCAR-3 ovarian; 14.7 µM in the assay with U251 CNS; 14.4 µM in the assay on COLO 205 colon; 20.5 µM in the assay with KM12 colon; 16.2 µM in the assay with NCI-H460 lung. Moreover, the GI50 was 12.6 µM in the assay with NCI-H226 lung, 11.4 µM with HT29 colon, 29 µM in the assay with SK-OV-3 ovarian and 18.2 µM in the assay with A549 NSCLC. Besides, the TGI came to 96.1 µM with SF-268 CNS; 33.3 µM in the assay on OVCAR-3 ovarian; 30 µM in the assay on U251 CNS; 30.6 µM with COLO 205 colon; 63.3 µM in the assay with KM12 colon; 35.9 µM in the assay with NCI-H460 lung. The TGI with NCI-H226 lung was found to be 28.8 µM; in the assay with HT29 colon, 32.9 µM; in the assay with SK-OV-3 ovarian, 95.4 µM; with A549 NSCLC it was 57.1 µM.

`CN(C)/N=C(/c1nc2ccc([N+](=O)[O-])cc2[nH]c1=O)C(O)c1ccco1` (stereo not given): the TGI in the assay on SF-268 CNS, in the assay on OVCAR-3 ovarian, in the assay on U251 CNS, in the assay on COLO 205 colon, in the assay with KM12 colon and with NCI-H460 lung was over 100 µM throughout. In addition, the TGI in the assay on NCI-H226 lung, in the assay with HT29 colon, with SK-OV-3 ovarian and with A549 NSCLC was over 100 µM throughout.

Turning to `NC(=O)c1coc(C2OC(CO)C(O)C2O)n1` (stereo not given), the TGI with SF-268 CNS, with OVCAR-3 ovarian, with U251 CNS, in the assay on COLO 205 colon, in the assay on KM12 colon and in the assay on NCI-H460 lung was over 100 µM each time. The TGI in the assay on NCI-H226 lung, with HT29 colon, in the assay with SK-OV-3 ovarian and in the assay with A549 NSCLC was over 100 µM in each case.
